Assay results as given in ChEMBL document CHEMBL5550132, “Structure-activity relationship in NOD2 agonistic muramyl dipeptides” (Eur J Med Chem, 2024).

Tests used:
[1] = target: T1, Nuclear factor NF-kappa-B complex (Homo sapiens) (UniProt Q00653+P19838+Q04206); test: Activation of NF-KappaB (unknown origin) expressed in HEK293T cells assessed as fold change at 1 uM incubated for 12 hrs by Renilla luciferase assay; assay type: cell-based; details: filed as activator
Cavia porcellus [2] = organism: Cavia porcellus; test: Induction of delayed type hypersensitivity in ABA-BSA immunized Hartley Guinea pigs assessed as reduction in skin lesions at 100 ug measured for 24 hrs; assay type: functional; details: dose 100 µg
Cavia porcellus [3] = organism: Cavia porcellus; test: Induction of delayed type hypersensitivity in ABA-BSA immunized Hartley Guinea pigs assessed as reduction in skin lesions at 100 ug measured for 48 hrs; assay type: functional; details: dose 100 µg
[4] = target: T1, Nuclear factor NF-kappa-B complex (Homo sapiens); test: Activation of NF-KappaB (unknown origin) expressed in HEK293T cells assessed as fold change at 10 nM incubated for 12 hrs by Renilla luciferase assay; assay type: cell-based; details: filed as activator
[5] = target: T1, Nuclear factor NF-kappa-B complex (Homo sapiens); test: Activation of NF-KappaB (unknown origin) expressed in HEK293T cells assessed as fold change at 100 nM incubated for 12 hrs by Renilla luciferase assay; assay type: cell-based; details: filed as activator
[6] = target: T1, Nuclear factor NF-kappa-B complex (Homo sapiens); test: Activation of NF-KappaB (unknown origin) expressed in HEK293T cells assessed as fold change at 1000 nM incubated for 12 hrs by Renilla luciferase assay; assay type: cell-based; details: filed as activator
[7] = target: T1, Nuclear factor NF-kappa-B complex (Homo sapiens); test: Activation of NF-KappaB (unknown origin) expressed in HEK293T cells assessed as fold change at 10 ng incubated for 12 hrs by Renilla luciferase assay; assay type: cell-based; details: filed as activator

T1 sequence (P19838 whole entry, looked up): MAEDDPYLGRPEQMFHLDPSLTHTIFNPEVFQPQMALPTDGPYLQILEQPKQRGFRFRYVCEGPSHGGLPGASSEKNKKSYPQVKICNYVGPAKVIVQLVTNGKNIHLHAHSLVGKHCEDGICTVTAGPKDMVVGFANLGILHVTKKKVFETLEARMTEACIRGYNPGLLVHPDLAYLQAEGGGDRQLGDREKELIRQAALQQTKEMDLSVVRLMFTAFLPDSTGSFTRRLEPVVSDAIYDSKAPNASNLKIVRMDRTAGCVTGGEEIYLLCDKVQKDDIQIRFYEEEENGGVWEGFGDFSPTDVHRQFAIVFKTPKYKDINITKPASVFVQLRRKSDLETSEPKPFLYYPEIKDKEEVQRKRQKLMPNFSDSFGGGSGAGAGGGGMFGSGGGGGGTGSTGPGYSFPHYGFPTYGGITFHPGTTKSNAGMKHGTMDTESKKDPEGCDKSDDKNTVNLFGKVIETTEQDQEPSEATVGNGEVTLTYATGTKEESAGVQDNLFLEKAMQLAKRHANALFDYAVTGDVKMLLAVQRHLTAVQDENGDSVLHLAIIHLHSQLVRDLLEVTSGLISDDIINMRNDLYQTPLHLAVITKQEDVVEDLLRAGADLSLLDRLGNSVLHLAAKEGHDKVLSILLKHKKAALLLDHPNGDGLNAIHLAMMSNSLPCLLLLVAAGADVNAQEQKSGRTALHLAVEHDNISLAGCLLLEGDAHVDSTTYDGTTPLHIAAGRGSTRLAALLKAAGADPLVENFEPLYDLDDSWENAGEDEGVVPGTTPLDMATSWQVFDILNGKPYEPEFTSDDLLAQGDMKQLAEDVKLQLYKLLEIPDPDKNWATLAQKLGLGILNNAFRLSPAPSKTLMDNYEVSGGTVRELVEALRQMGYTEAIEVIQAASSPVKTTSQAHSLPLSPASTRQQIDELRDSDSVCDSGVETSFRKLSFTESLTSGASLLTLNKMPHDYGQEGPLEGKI
T1 sequence (Q00653 whole entry, looked up): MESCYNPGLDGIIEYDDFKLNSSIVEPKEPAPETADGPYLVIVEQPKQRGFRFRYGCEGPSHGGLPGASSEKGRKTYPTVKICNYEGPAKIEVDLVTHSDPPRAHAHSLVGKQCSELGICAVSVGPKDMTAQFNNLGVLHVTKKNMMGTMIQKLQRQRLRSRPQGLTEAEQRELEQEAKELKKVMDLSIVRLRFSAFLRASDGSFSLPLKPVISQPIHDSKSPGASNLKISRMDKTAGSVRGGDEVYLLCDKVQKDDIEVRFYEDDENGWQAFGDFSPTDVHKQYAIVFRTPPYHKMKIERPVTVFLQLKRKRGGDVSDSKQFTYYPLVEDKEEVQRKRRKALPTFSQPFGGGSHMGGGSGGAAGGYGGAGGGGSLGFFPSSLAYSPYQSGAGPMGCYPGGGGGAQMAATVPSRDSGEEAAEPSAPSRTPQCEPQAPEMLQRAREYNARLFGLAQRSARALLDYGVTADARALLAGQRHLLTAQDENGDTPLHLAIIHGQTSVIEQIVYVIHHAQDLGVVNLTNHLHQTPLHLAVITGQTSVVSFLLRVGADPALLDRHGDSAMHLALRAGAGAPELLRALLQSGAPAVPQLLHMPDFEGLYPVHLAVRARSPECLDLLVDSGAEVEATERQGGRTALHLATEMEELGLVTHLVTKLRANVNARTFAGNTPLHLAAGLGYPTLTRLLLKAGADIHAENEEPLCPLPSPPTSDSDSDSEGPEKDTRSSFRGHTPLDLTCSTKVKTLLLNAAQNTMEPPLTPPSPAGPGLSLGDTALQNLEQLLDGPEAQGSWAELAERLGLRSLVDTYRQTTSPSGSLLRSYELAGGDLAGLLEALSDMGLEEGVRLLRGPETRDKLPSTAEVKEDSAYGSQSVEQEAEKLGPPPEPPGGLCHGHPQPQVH
T1 sequence (Q04206 whole entry, looked up): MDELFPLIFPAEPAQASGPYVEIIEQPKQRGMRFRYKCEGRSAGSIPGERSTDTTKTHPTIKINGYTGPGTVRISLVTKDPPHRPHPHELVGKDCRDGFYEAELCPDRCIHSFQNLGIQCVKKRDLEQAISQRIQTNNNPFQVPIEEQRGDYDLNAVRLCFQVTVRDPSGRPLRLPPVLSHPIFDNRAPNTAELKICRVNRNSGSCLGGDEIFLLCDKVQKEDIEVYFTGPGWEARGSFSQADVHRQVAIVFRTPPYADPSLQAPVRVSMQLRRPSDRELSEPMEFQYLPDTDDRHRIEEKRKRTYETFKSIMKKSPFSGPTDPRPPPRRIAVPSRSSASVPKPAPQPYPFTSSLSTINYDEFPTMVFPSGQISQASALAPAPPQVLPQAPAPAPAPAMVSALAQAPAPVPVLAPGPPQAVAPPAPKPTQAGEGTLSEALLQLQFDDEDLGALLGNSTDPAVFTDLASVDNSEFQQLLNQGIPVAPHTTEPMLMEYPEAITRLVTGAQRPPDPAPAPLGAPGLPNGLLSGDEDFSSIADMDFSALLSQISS

Row | Structure (SMILES) | fold change (FC) [1] | fold change (FC) [4] | fold change (FC) [5] | fold change (FC) [6] | fold change (FC) [7] | further results
1 | C[C@H](NC(=O)[C@@H](C)O[C@@H]1[C@@H](N)[C@H](O)O[C@H](CN)[C@H]1O)C(=O)N[C@H](CCC(=O)O)C(N)=O.Cl.Cl |  |  |  |  |  | Activity (Cavia porcellus [2]): 17.1 mm; Activity (Cavia porcellus [3]): 5.1 mm
2 | CC(=O)NC[C@H]1O[C@@H](O)[C@H](NC(C)=O)[C@@H](O[C@H](C)C(=O)N[C@@H](CO)C(=O)N[C@H](CCC(=O)O)C(N)=O)[C@@H]1O |  |  |  |  |  | Activity (Cavia porcellus [2]): 20.4 mm; Activity (Cavia porcellus [3]): 19.6 mm
3 | CCCCCCNC(=O)[C@@H](CCC(=O)O)NC(=O)[C@H](C)NC(=O)[C@@H](C)O[C@H]1[C@H](O)[C@@H](CO)O[C@@H](O)[C@@H]1NC(C)=O |  | 1.1 | 1.15 | 2.8 | 1.1 | 
4 | CCCCCCCCOC(=O)[C@@H](CCC(=O)O)NC(=O)[C@H](C)NC(=O)[C@@H](C)O[C@H]1[C@H](O)[C@@H](CO)O[C@@H](O)[C@@H]1NC(C)=O |  | 6.1 | 6.9 | 6.3 | 6.1 | 
5 | CCCCCCCCCCCCCCCCOC(=O)[C@@H](CCC(=O)O)NC(=O)[C@H](C)NC(=O)[C@@H](C)O[C@H]1[C@H](O)[C@@H](CO)O[C@@H](O)[C@@H]1NC(C)=O |  | 5.3 | 7 | 4.9 | 5.3 | 
6 | CC(=O)NC[C@H]1O[C@@H](O)[C@H](NC(C)=O)[C@@H](O[C@H](C)C(=O)N[C@H](C(=O)N[C@H](CCC(=O)O)C(N)=O)C(C)C)[C@@H]1O |  |  |  |  |  | Activity (Cavia porcellus [2]): 19.1 mm; Activity (Cavia porcellus [3]): 19.5 mm
7 | CCCCCCCCCCCCOC(=O)[C@@H](CCC(=O)O)NC(=O)[C@H](C)NC(=O)[C@@H](C)O[C@H]1[C@H](O)[C@@H](CO)O[C@@H](O)[C@@H]1NC(C)=O |  | 7.5 | 6.5 | 6.3 | 7.5 | 
8 | CCCCCCCCCCCCCCCCCCCC(=O)NC[C@H]1O[C@@H](O)[C@H](N)[C@@H](O[C@H](C)C(=O)N[C@@H](C)C(=O)N[C@H](CCC(=O)O)C(N)=O)[C@@H]1O.Cl |  |  |  |  |  | Activity (Cavia porcellus [2]): 8 mm
9 | CO[C@@H]1O[C@H](CO)[C@@H](O)[C@H](O[C@H](C)C(=O)N[C@@H](C)C(=O)N[C@H](CCC(=O)O)C(N)=O)[C@H]1NC(=O)Cc1ccccc1 | 4.45 |  |  |  |  | 
10 | CCCCCCCCCCCO[C@@H]1O[C@H](CO)[C@@H](O)[C@H](O[C@H](C)C(=O)N[C@@H](C)C(=O)N[C@H](CCC(=O)O)C(N)=O)[C@H]1NC(=O)CO | 4.85 |  |  |  |  | 
11 | CCOC(=O)CC[C@@H](NC(=O)[C@H](C)NC(=O)[C@@H](C)O[C@H]1[C@H](O)[C@@H](CO)O[C@@H](O)[C@@H]1NC(C)=O)C(=O)OCC |  | 2.3 | 4.7 | 6.5 | 2.3 | 
12 | CC(=O)N[C@@H]1[C@@H](O[C@H](C)C(=O)N[C@@H](C)C(=O)N[C@H](CCC(=O)O)C(=O)NCC(F)(F)C(F)(F)F)[C@H](O)[C@@H](CO)O[C@H]1O |  | 0.8 | 0.9 | 2.4 | 0.8 | 
13 | CO[C@@H]1O[C@H](CO)[C@@H](O)[C@H](O[C@H](C)C(=O)N[C@@H](C)C(=O)N[C@H](CCC(=O)O)C(N)=O)[C@H]1N | 6.2 |  |  |  |  | 
14 | CCCCCCCCC(=O)N[C@H]1[C@H](OC)O[C@H](CO)[C@@H](O)[C@@H]1O[C@H](C)C(=O)N[C@@H](C)C(=O)N[C@H](CCC(=O)O)C(N)=O | 4.3 |  |  |  |  | 
15 | CC(=O)N[C@@H]1[C@@H](O[C@H](C)C(=O)N[C@@H](C)C(=O)N[C@H](CCC(=O)O)C(=O)NC2CCCCC2)[C@H](O)[C@@H](CO)O[C@H]1O |  | 1 | 1 | 2.9 | 1 | 
16 | CO[C@@H]1O[C@H](CO)[C@@H](O)[C@H](O[C@H](C)C(=O)N[C@@H](C)C(=O)N[C@H](CCC(=O)O)C(N)=O)[C@H]1NC(=O)Cc1c(F)c(F)c(F)c(F)c1F | 5 |  |  |  |  | 
17 | CCCCCCCCCCCCCCCCCCCCOC(=O)[C@@H](CCC(=O)O)NC(=O)[C@H](C)NC(=O)[C@@H](C)O[C@H]1[C@H](O)[C@@H](CO)O[C@@H](O)[C@@H]1NC(C)=O |  | 5.7 | 7.35 | 5.7 | 5.7 | 
18 | CCCCCCCCCCCCCCCCCC(=O)NC[C@H]1O[C@@H](O)[C@H](N)[C@@H](O[C@H](C)C(=O)N[C@H](C(=O)N[C@H](CCC(=O)O)C(N)=O)C(C)C)[C@@H]1O |  |  |  |  |  | Activity (Cavia porcellus [2]): 4.3 mm
19 | CCCCCCCCCCCCCCCCCC(=O)N[C@@H]1[C@@H](O[C@H](C)C(=O)N[C@H](C(=O)N[C@H](CCC(=O)O)C(N)=O)C(C)C)[C@H](O)[C@@H](CN)O[C@H]1O |  |  |  |  |  | Activity (Cavia porcellus [2]): 10.5 mm
20 | CC(=O)N[C@@H]1[C@@H](O[C@H](C)C(=O)N[C@@H](C)C(=O)N[C@H](CCC(=O)O)C(=O)OCCc2ccccc2)[C@H](O)[C@@H](CO)O[C@H]1O |  | 5.6 | 7 | 6 | 5.6 | 

More lines, main results first:

Row | fold change (FC) [1] | fold change (FC) [4] | fold change (FC) [5] | fold change (FC) [6] | fold change (FC) [7] | Structure (SMILES) | further results
21 | 4.4 |  |  |  |  | COCC(=O)N[C@@H]1[C@@H](O[C@H](C)C(=O)N[C@@H](C)C(=O)N[C@H](CCC(=O)O)C(N)=O)[C@H](O)[C@@H](CO)O[C@H]1O | 
22 |  | 1.85 | 1.87 | 1.9 |  | CC(=O)N[C@@H]1[C@@H](O[C@H](C)C(=O)N[C@@H](C)C(=O)N[C@H](CC(=O)O)C(N)=O)[C@H](O)[C@@H](CO)O[C@H]1O | 
23 | 4.5 |  |  |  |  | C[C@H](NC(=O)[C@@H](C)O[C@H]1[C@H](O)[C@@H](CO)O[C@@H](O)[C@@H]1NC(=O)CN)C(=O)N[C@H](CCC(=O)O)C(N)=O | 
24 | 4.5 |  |  |  |  | CCCCCO[C@@H]1O[C@H](CO)[C@@H](O)[C@H](O[C@H](C)C(=O)N[C@@H](C)C(=O)N[C@H](CCC(=O)O)C(N)=O)[C@H]1NC(=O)CO | 
25 |  | 4.6 | 6.8 | 6.55 | 4.6 | CC(=O)N[C@@H]1[C@@H](O[C@H](C)C(=O)N[C@@H](C)C(=O)N[C@H](CCC(=O)O)C(=O)OC2CCCCC2)[C@H](O)[C@@H](CO)O[C@H]1O | 
26 |  | 1.1 | 1.1 | 2.1 | 1.1 | CCCCNC(=O)[C@@H](CCC(=O)O)NC(=O)[C@H](C)NC(=O)[C@@H](C)O[C@H]1[C@H](O)[C@@H](CO)O[C@@H](O)[C@@H]1NC(C)=O | 
27 |  | 2.5 | 4.5 | 6.1 | 2.5 | CC(=O)N[C@@H]1[C@@H](O[C@H](C)C(=O)N[C@@H](C)C(=O)N[C@H](CCC(=O)O)C(=O)O)[C@H](O)[C@@H](CO)O[C@H]1O | 
28 | 3.85 |  |  |  |  | C[C@H](NC(=O)[C@@H](C)O[C@H]1[C@H](O)[C@@H](CO)O[C@@H](O)[C@@H]1NC(=O)Cc1ccccc1)C(=O)N[C@H](CCC(=O)O)C(N)=O | 
29 | 5.9 |  |  |  |  | CO[C@@H]1O[C@H](CO)[C@@H](O)[C@H](O[C@H](C)C(=O)N[C@@H](C)C(=O)N[C@H](CCC(=O)O)C(N)=O)[C@H]1NC(=O)CO | 
30 | 5 |  |  |  |  | C[C@H](NC(=O)[C@@H](C)O[C@H]1[C@H](O)[C@@H](CO)O[C@@H](OCCCCN)[C@@H]1NC(=O)CO)C(=O)N[C@H](CCC(=O)O)C(N)=O | 
31 | 2.4 |  |  |  |  | CCCCCCCCC(=O)N[C@@H]1[C@@H](O[C@H](C)C(=O)N[C@@H](C)C(=O)N[C@H](CCC(=O)O)C(N)=O)[C@H](O)[C@@H](CO)O[C@H]1O | 
32 | 4.6 |  |  |  |  | C[C@H](NC(=O)[C@@H](C)O[C@@H]1[C@@H](N)[C@H](O)O[C@H](CO)[C@H]1O)C(=O)N[C@H](CCC(=O)O)C(N)=O | 
33 |  | 1.6 | 2.8 | 5.6 | 1.6 | CCOC(=O)CC[C@@H](NC(=O)[C@H](C)NC(=O)[C@@H](C)O[C@H]1[C@H](O)[C@@H](CO)O[C@@H](O)[C@@H]1NC(C)=O)C(N)=O | 
34 |  | 4 | 6.3 | 6.6 | 4 | CCOC(=O)[C@@H](CCC(=O)O)NC(=O)[C@H](C)NC(=O)[C@@H](C)O[C@H]1[C@H](O)[C@@H](CO)O[C@@H](O)[C@@H]1NC(C)=O | 
35 | 5.25 |  |  |  |  | CCCCC(=O)N[C@H]1[C@H](OC)O[C@H](CO)[C@@H](O)[C@@H]1O[C@H](C)C(=O)N[C@@H](C)C(=O)N[C@H](CCC(=O)O)C(N)=O | 
36 | 4.5 |  |  |  |  | CCCCC(=O)N[C@@H]1[C@@H](O[C@H](C)C(=O)N[C@@H](C)C(=O)N[C@H](CCC(=O)O)C(N)=O)[C@H](O)[C@@H](CO)O[C@H]1O | 
37 |  | 4.7 | 7.1 | 7.8 | 4.7 | CCCCOC(=O)[C@@H](CCC(=O)O)NC(=O)[C@H](C)NC(=O)[C@@H](C)O[C@H]1[C@H](O)[C@@H](CO)O[C@@H](O)[C@@H]1NC(C)=O | 
38 |  | 4.2 | 6.6 | 6.55 | 4.2 | CC(=O)N[C@@H]1[C@@H](O[C@H](C)C(=O)N[C@@H](C)C(=O)N[C@H](CCC(=O)O)C(=O)OCCCl)[C@H](O)[C@@H](CO)O[C@H]1O | 
39 | 5.4 |  |  |  |  | C[C@H](NC(=O)[C@@H](C)O[C@H]1[C@H](O)[C@@H](CO)O[C@@H](O)[C@@H]1NC(=O)Cc1c(F)c(F)c(F)c(F)c1F)C(=O)N[C@H](CCC(=O)O)C(N)=O | 
40 | 5.55 |  |  |  |  | COCC(=O)N[C@H]1[C@H](OC)O[C@H](CO)[C@@H](O)[C@@H]1O[C@H](C)C(=O)N[C@@H](C)C(=O)N[C@H](CCC(=O)O)C(N)=O | 
41 | 5.8 |  |  |  |  | C[C@H](NC(=O)CO[C@H]1[C@H](O)[C@@H](CO)O[C@@H](O)[C@@H]1NC(=O)CO)C(=O)N[C@H](CCC(=O)O)C(N)=O | 
42 | 4.5 |  |  |  |  | C[C@H](NC(=O)[C@@H](C)O[C@H]1[C@H](O)[C@@H](CO)O[C@@H](O)[C@@H]1NC(=O)CO)C(=O)N[C@H](CCC(=O)O)C(N)=O | 
